# According to PubChem BioAssay AID493146 (Sanford-Burnham Center for Chemical Genomics, 2011):
# Activity calls are given as the source filed them. No rule for the calls is given here.
# Biological target: intestinal alkaline phosphatase (Alpi), Mus musculus
# Assay: murine Alpi activation by analogs – biochemical, luminescence, SAR follow-up (AID 493146)
# Details: purified mouse IAP, luminescent substrate
row,Compound,EC50
1,COc1cc(C(=O)NNc2nc3cc4c(cc3s2)OCO4)cc(OC)c1OC,> 100 µM (inactive)
2,CCOC(=O)NC(=O)CSc1sc2c(O)cc(=O)[nH]c2c1C#N,> 100 µM (inactive)
3,O=C(N/N=C/C1CC=CCC1)c1cc(O)c(O)c(O)c1 (configuration not stated),> 100 µM (inactive)
4,Cc1csc(NC(=O)CSc2sc3c(O)cc(=O)[nH]c3c2C#N)n1,> 100 µM (inactive)
5,Cc1cc(NC(=O)CSc2sc3c(O)cc(=O)[nH]c3c2C#N)ccc1Br,> 100 µM (inactive)
6,S=C(NCCC(c1ccccc1)c1ccccc1)Nc1ccc(Cl)cc1Cl,7.1 µM
7,O=C(N/N=C/c1ccccc1F)c1cc(O)c(O)c(O)c1,> 100 µM (inactive)
8,Cc1ccc(NC(=O)CCNS(=O)(=O)c2ccc3[nH]c(=O)oc3c2)cc1N(C)C,> 100 µM (inactive)
9,N#Cc1c(SCC(=O)Nc2cccc(F)c2)sc2c(O)cc(=O)[nH]c12,> 100 µM (inactive)
10,CCc1nnc(NC(=O)CSc2sc3c(O)cc(=O)[nH]c3c2C#N)s1,> 100 µM (inactive)
11,O=S(=O)(Nc1ncccn1)c1ccc(NC(=S)NCCC(c2ccccc2)c2ccccc2)cc1,> 100 µM (inactive)
12,CN1CCC(=NNC(=O)c2cc(O)c(O)c(O)c2)CC1,> 100 µM (inactive)
13,COc1ccc(NC(=O)CSc2sc3c(O)cc(=O)[nH]c3c2C#N)c(OC)c1,> 100 µM (inactive)
14,N#Cc1c(SCC(=O)Nc2nc3ccccc3s2)sc2c(O)cc(=O)[nH]c12,> 100 µM (inactive)
15,Cc1cc(=O)oc2cc(NC(=S)NCCC(c3ccccc3)c3ccccc3)ccc12,> 100 µM (inactive)
16,O=[N+]([O-])c1ccc(NC(=S)NCCC(c2ccccc2)c2ccccc2)cc1,> 100 µM (inactive)
17,N#Cc1c(SCC(=O)Nc2ccc(C(F)(F)F)cc2)sc2c(O)cc(=O)[nH]c12,> 100 µM (inactive)
18,O=C(N/N=C/C1CC2CCC1C2)c1cc(O)c(O)c(O)c1 (configuration not stated),> 100 µM (inactive)
19,CC(C)c1ccc(NC(=O)CCNS(=O)(=O)c2ccc3[nH]c(=O)oc3c2)cc1,> 100 µM (inactive)
20,COc1ccc(NC(=O)C(CC(C)C)NS(=O)(=O)c2ccc3[nH]c(=O)oc3c2)cc1 (configuration not stated),> 100 µM (inactive)
21,C/C(=N\NC(=O)c1cc(O)c(O)c(O)c1)c1ccncc1,> 100 µM (inactive)
22,N#Cc1c(SCC(=O)Nc2nccs2)sc2c(O)cc(=O)[nH]c12,> 100 µM (inactive)
23,COc1cc(C(=O)NNC(=O)c2n[nH]c3ccccc23)cc(OC)c1OC,> 100 µM (inactive)
24,CCc1ccc(NC(=O)CN(C)S(=O)(=O)c2ccc3[nH]c(=O)oc3c2)cc1,> 100 µM (inactive)

row,Compound,EC50
1,FC(F)(F)c1cccc(NC(=S)NCCC(c2ccccc2)c2ccccc2)c1,82.3 µM
2,N#Cc1c(SCC(=O)Nc2ccc(Cl)cc2Cl)sc2c(O)cc(=O)[nH]c12,> 100 µM (inactive)
3,CCCSc1nnc(NC(=O)CSc2sc3c(O)cc(=O)[nH]c3c2C#N)s1,> 100 µM (inactive)
4,COc1ccc(OC)c(NC(=O)CCNS(=O)(=O)c2ccc3[nH]c(=O)oc3c2)c1,> 100 µM (inactive)
5,COc1ccc(NC(=S)NCCC(c2ccccc2)c2ccccc2)cc1,37.7 µM
6,O=C(N/N=C/c1ccsc1)c1cc(O)c(O)c(O)c1,> 100 µM (inactive)
7,COC(=O)NNC(=O)c1cc(OC)c(OC)c(OC)c1,> 100 µM (inactive)
8,CCN(CC)C(=O)CSc1sc2c(O)cc(=O)[nH]c2c1C#N,> 100 µM (inactive)
9,COc1cc(C(=O)NNC(=O)C2CC2)cc(OC)c1OC,> 100 µM (inactive)
10,COc1cc(C(=O)NNC(=S)NC(=O)c2ccc(Cl)cc2)cc(OC)c1OC,> 100 µM (inactive)
11,O=C(N/N=C/c1ccc(F)cc1)c1cc(O)c(O)c(O)c1,> 100 µM (inactive)
12,COc1ccc(Cl)cc1NC(=O)CSc1sc2c(O)cc(=O)[nH]c2c1C#N,> 100 µM (inactive)
13,O=C(NN=Cc1cccnc1)c1cc(O)c(O)c(O)c1,> 100 µM (inactive)
14,Cc1ccc(C)c(NC(=O)CCNS(=O)(=O)c2ccc3[nH]c(=O)oc3c2)c1,> 100 µM (inactive)
15,Cc1ccc(Cl)cc1NC(=O)CSc1sc2c(O)cc(=O)[nH]c2c1C#N,> 100 µM (inactive)
16,COc1ccc(CNC(=O)CSc2sc3c(O)cc(=O)[nH]c3c2C#N)cc1OC,> 100 µM (inactive)
17,CCOc1ccc2nc(NC(=O)CN(C)S(=O)(=O)c3ccc4[nH]c(=O)oc4c3)sc2c1,> 100 µM (inactive)
18,COc1ccc(CNC(=O)CSc2sc3c(O)cc(=O)[nH]c3c2C#N)cc1,> 100 µM (inactive)
19,CC(C)NC(=O)CSc1sc2c(O)cc(=O)[nH]c2c1C#N,> 100 µM (inactive)
20,CCOc1cccc(NC(=O)CSc2sc3c(O)cc(=O)[nH]c3c2C#N)c1,> 100 µM (inactive)
21,CCSc1nnc(NC(=O)CSc2sc3c(O)cc(=O)[nH]c3c2C#N)s1,> 100 µM (inactive)
22,N#Cc1c(SCC(=O)Nc2nc3ccc(Br)cc3s2)sc2c(O)cc(=O)[nH]c12,> 100 µM (inactive)
23,COc1cccc(/C=N/NC(=O)c2cc(O)c(O)c(O)c2)c1,> 100 µM (inactive)

# Other lines, results leading:
row,EC50,Compound
1,> 100 µM (inactive),COc1ccccc1CNC(=O)CCNS(=O)(=O)c1ccc2[nH]c(=O)oc2c1
2,> 100 µM (inactive),COc1ccccc1NC(=O)CSc1sc2c(O)cc(=O)[nH]c2c1C#N
3,> 100 µM (inactive),O=C(CN1C(=O)/C(=C\c2ccco2)SC1=S)Nc1ccc(C(=O)O)cc1
4,> 100 µM (inactive),CC(C(=O)Nc1cccc(C(=O)O)c1)N1C(=O)/C(=C\c2ccco2)SC1=S (configuration not stated)
5,> 100 µM (inactive),CC(C(=O)Nc1ccc(C(=O)O)c(O)c1)N1C(=O)/C(=C\c2ccco2)SC1=S (configuration not stated)
6,> 100 µM (inactive),CC(C(=O)N(C)C1CCS(=O)(=O)C1)N1C(=O)/C(=C/c2ccco2)SC1=S (configuration not stated)
7,> 100 µM (inactive),O=C(CN1C(=O)/C(=C/c2ccco2)SC1=S)Nc1ccc(O)c(C(=O)O)c1
8,> 100 µM (inactive),CCN(C(=O)CN1C(=O)/C(=C\c2ccco2)SC1=S)C1CCS(=O)(=O)C1 (configuration not stated)
9,> 100 µM (inactive),CCOC(=O)N1CCC(NC(=O)CSc2sc3c(O)cc(=O)[nH]c3c2C#N)CC1
10,> 100 µM (inactive),O=C(CCN1C(=O)/C(=C\c2ccco2)SC1=S)Nc1ccc(C(=O)O)c(O)c1
11,> 100 µM (inactive),N#Cc1c(SCC(=O)Nc2nncs2)sc2c(O)cc(=O)[nH]c12
12,> 100 µM (inactive),CCN(C(=O)C(C)N1C(=O)/C(=C/c2ccco2)SC1=S)C1CCS(=O)(=O)C1 (configuration not stated)
13,> 100 µM (inactive),O=C1/C(=C/c2ccco2)SC(=S)N1C1CCS(=O)(=O)C1 (configuration not stated)
14,> 100 µM (inactive),O=C(NCCc1ccc(Cl)cc1)C1CCCN(S(=O)(=O)c2ccc3[nH]c(=O)oc3c2)C1 (configuration not stated)
15,> 100 µM (inactive),O=C(N/N=C/c1ccco1)c1cc(O)c(O)c(O)c1
16,> 100 µM (inactive),CSc1cccc(NC(=O)CCNS(=O)(=O)c2ccc3[nH]c(=O)oc3c2)c1
17,> 100 µM (inactive),O=C(CCN1C(=O)/C(=C/c2ccco2)SC1=S)Nc1ccc(O)cc1C(=O)O
18,> 100 µM (inactive),CC(C)C(C(=O)NC1CCS(=O)(=O)C1)N1C(=O)/C(=C\c2ccco2)SC1=S (configuration not stated)
19,> 100 µM (inactive),COc1cccc(NC(=O)CN(C)S(=O)(=O)c2ccc3[nH]c(=O)oc3c2)c1
20,> 100 µM (inactive),O=C(CCCN1C(=O)/C(=C\c2ccco2)SC1=S)Nc1ccc(O)cc1C(=O)O
21,> 100 µM (inactive),Cc1ccc(/C=C2\SC(=S)N(C3CCS(=O)(=O)C3)C2=O)o1 (configuration not stated)
22,> 100 µM (inactive),O=C(O)CC(C(=O)O)N1C(=O)/C(=C/c2ccc(-c3nc4ccccc4s3)o2)SC1=S (configuration not stated)
23,> 100 µM (inactive),CCOc1ccccc1CNC(=O)CCNS(=O)(=O)c1ccc2[nH]c(=O)oc2c1

row,EC50,Compound
1,> 100 µM (inactive),N#Cc1cccc(NC(=O)CCNS(=O)(=O)c2ccc3[nH]c(=O)oc3c2)c1
2,> 100 µM (inactive),CCOc1ccccc1NC(=O)CCNS(=O)(=O)c1ccc2[nH]c(=O)oc2c1
3,> 100 µM (inactive),O=C(CN1C(=O)/C(=C\c2ccco2)SC1=S)Nc1cccc(C(=O)O)c1
4,> 100 µM (inactive),COc1ccc(N2CCN(C(=O)CN3C(=O)/C(=C\c4ccco4)SC3=S)CC2)cc1
5,> 100 µM (inactive),O=C(CCNS(=O)(=O)c1ccc2[nH]c(=O)oc2c1)Nc1cccc(-c2ccno2)c1
6,> 100 µM (inactive),O=C(CN1C(=O)/C(=C/c2ccco2)SC1=S)Nc1cccc(C(=O)O)c1
7,> 100 µM (inactive),COc1ccc(NC(=O)CCNS(=O)(=O)c2ccc3[nH]c(=O)oc3c2)cc1Cl
8,> 100 µM (inactive),O=C(C1CCN(S(=O)(=O)c2ccc3[nH]c(=O)oc3c2)CC1)N1CC=C(c2ccccc2)CC1
9,> 100 µM (inactive),CCOC(=O)N1CCN(S(=O)(=O)c2ccc3[nH]c(=O)oc3c2)CC1
10,> 100 µM (inactive),O=C(NNC(=O)c1cc(O)c(O)c(O)c1)NC1CCCCC1
11,> 100 µM (inactive),CC(C(=O)NCCc1ccc(O)c(O)c1)N1C(=O)/C(=C\c2ccco2)SC1=S (configuration not stated)
12,> 100 µM (inactive),Cc1ccc(NC(=O)CCNS(=O)(=O)c2ccc3[nH]c(=O)oc3c2)c(C)c1
13,> 100 µM (inactive),NS(=O)(=O)c1ccc(-c2ccc(/C=C3\SC(=S)N(C4CCS(=O)(=O)C4)C3=O)o2)cc1 (configuration not stated)
14,> 100 µM (inactive),COc1cccc(CNC(=O)CCNS(=O)(=O)c2ccc3[nH]c(=O)oc3c2)c1
15,> 100 µM (inactive),O=C(CN1C(=O)/C(=C/c2ccco2)SC1=S)NC1CCS(=O)(=O)C1 (configuration not stated)
16,> 100 µM (inactive),O=C(CN1C(=O)/C(=C/c2ccco2)SC1=S)Nc1ccc(C(=O)O)cc1
17,> 100 µM (inactive),O=C(CN1C(=O)/C(=C\c2ccco2)SC1=S)Nc1ccccc1C(=O)O
18,> 100 µM (inactive),O=C(CN1C(=O)/C(=C/c2ccco2)SC1=S)NC1C=CS(=O)(=O)C1 (configuration not stated)
19,> 100 µM (inactive),O=C(CN1C(=O)/C(=C/c2ccco2)SC1=S)N[C@@H]1CSC[C@@H]1O
20,> 100 µM (inactive),O=C(CN1C(=O)/C(=C/c2ccco2)SC1=S)Nc1ccc(C(=O)O)c(O)c1
21,> 100 µM (inactive),CC(C(=O)Nc1ccccc1C(=O)O)N1C(=O)/C(=C\c2ccco2)SC1=S (configuration not stated)
22,> 100 µM (inactive),O=C(CCN1C(=O)/C(=C/c2ccco2)SC1=S)Nc1ccc(C(=O)O)c(O)c1
